US20090306137A1, “TREATMENT FOR DEPRESSIVE DISORDERS” (priority 2006, published 2009)
Several values for one entry are separate records, joined by “and”; a condition that tells them apart may be missing. Equal entries are not always repeated.

Assays:
Nea1 = experiment: receptor affinity; assay type: binding; conditions: high affinity
Nea2c = molecular target: T1, Nea2c (Homo sapiens, UniProt P18825); experiment: receptor affinity; assay type: binding; conditions: high affinity
T1 sequence (P18825 1-462): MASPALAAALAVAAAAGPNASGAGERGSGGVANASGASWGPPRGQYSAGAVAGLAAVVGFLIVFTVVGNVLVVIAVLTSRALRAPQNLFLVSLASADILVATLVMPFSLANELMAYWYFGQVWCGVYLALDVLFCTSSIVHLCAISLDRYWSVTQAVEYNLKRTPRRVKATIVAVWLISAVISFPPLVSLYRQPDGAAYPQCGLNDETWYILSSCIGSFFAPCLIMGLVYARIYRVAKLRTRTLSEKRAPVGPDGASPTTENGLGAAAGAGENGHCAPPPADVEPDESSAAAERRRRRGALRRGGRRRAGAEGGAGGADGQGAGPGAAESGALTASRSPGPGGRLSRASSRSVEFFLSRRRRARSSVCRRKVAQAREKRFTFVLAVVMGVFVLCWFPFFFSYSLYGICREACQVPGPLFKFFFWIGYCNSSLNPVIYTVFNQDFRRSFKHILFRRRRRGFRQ

D3 = D3 (Homo sapiens, UniProt P35462); experiment: receptor affinity; assay type: binding; conditions: high affinity
5-HT1A = molecular target: T2, 5-HT1A (Homo sapiens, UniProt P08908); experiment: receptor affinity; assay type: binding; conditions: listed both as high and as moderate affinity
T2 sequence (P08908 1-422): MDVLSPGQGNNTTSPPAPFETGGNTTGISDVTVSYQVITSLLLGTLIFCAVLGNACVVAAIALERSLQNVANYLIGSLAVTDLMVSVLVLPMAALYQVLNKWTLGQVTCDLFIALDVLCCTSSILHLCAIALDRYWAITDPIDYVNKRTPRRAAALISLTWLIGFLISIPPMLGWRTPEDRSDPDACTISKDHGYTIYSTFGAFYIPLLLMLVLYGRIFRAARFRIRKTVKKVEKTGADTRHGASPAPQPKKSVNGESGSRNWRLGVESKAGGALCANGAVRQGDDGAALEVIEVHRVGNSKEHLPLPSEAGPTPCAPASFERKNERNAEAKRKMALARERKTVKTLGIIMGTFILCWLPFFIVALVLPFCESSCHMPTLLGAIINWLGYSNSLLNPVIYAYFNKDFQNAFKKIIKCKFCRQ

[1] = molecular target: other dopaminergic, adrenergic, and serotoninergic receptors; experiment: receptor affinity; assay type: binding; conditions: moderate affinity
[2] = test system: selected dopaminergic, serotoninergic, and adrenergic receptors; experiment: functional action at receptors; assay type: biochemical

D3, sequence (P35462 whole entry): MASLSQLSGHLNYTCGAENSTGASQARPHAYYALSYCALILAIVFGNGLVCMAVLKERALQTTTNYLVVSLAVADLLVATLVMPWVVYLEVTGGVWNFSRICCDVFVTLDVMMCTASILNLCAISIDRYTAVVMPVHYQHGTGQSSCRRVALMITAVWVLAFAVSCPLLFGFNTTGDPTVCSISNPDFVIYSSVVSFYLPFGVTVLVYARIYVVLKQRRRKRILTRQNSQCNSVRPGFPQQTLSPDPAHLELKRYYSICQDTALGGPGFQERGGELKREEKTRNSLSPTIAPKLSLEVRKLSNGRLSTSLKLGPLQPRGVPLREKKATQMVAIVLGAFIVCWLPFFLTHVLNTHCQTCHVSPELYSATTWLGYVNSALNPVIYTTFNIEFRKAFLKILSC

COc1cc(C(C)=O)ccc1OCCCN1CCC(c2noc3cc(F)ccc23)CC1 [Iloperidone, 1-[4-[3-[4-(6-flouro-1,2-benzisoxazol-3-yl)-1-piperidinyl]propoxy]-3-methoxyphenyl]ethanone]
Kd (Nea1): < 10 nM | Kd (Nea2c): < 10 nM | Kd (D3): < 10 nM | Kd (5-HT1A): < 10 nM and 10 to 100 nM | Kd [1]: 10 to 100 nM | mode of action at receptors [2]: antagonist
